Data reported in ChEMBL document CHEMBL1152405, “Bis-anthracenyl isoxazolyl amides have enhanced anticancer activity” (Bioorg Med Chem Lett, 2009).

Tested on: SNB-19
Test: Antitumor activity against human SNB19 cells after 24 hrs
Assay type: functional, cell-based
Settings: SNB-19, 24 h

IC50: 6.21 µM
SMILES: Cc1onc(-c2c3ccccc3c(Cl)c3ccccc23)c1C(=O)Nc1cc(C(=O)NCCCN(C)C)n(C)c1
